Laboratory results: ChEMBL document CHEMBL3817769, “Expanding the chemical space of hydrophobic pharmacophores: the role of hydrophobic substructures in the development of novel transcription modulators” (2016)

Tested on: HL-60
Assay: Induction of differentiation in human HL60 cells after 20 mins by NBT reduction assay relative to retinoic acid
Format: functional
Parameters: concentration or dose not given beside the values

| Compound | Activity [%] |
| --- | --- |
| C[Si](C)(C)c1cc(C(=O)/C=C/c2ccc(C(=O)O)cc2)cc([Si](C)(C)C)c1 | 860 |
| CC(C)(C)c1cc(C(=O)/C=C/c2ccc(C(=O)O)cc2)cc(C(C)(C)C)c1 | 640 |
| 4-[3-(2,5-Bis-trimethylgermanyl-phenyl)-3-oxo-propenyl]-benzoic acid (Ch55G) | 1000 |
| C[Si](C)(C)c1cc(C(=O)Nc2ccc(C(=O)O)cc2)cc([Si](C)(C)C)c1 [AMSILAROTENE] | 53 |
| CC(C)(C)c1cc(C(=O)Nc2ccc(C(=O)O)cc2)cc(C(C)(C)C)c1 | 5.6 |
